Experimental data reported in US4814340A, “1,4-diaryl alkane derivatives having insecticidal and acaricidal activity” (priority 1982, dated 1989).
Where two headings read alike, the source gives them in different places.

How the values were obtained:
[1] = system: green rice leafhopper (female adults); assay: Test 2 (Effect on Green Rice Leafhopper); assay type: in vivo; conditions: Nephotettix cincticeps
Description: (§1) Compounds (a) through (g) described below were tested as comparative compounds in the same manner as the compounds of the present invention. All the tests were doubly carried out. Namely, each result was expressed by an average value of two data.
Four or five seedlings of paddy rice with three leaves were bundled, and thereon the same dilution of the emulsifiable concentrate as used in Test 1 was sprayed in an amount of 3 ml. The bundle was dried and covered with a metal net cylinder, and 10 female adults of green rice leafhopper were set free in the cylinder. 48 hours after, the number of killed adults was counted.

[2] = system: two-spotted spider mite (adults); assay: Test 4 (Effect on Two-Spotted Spider Mite); assay type: in vivo; conditions: Tetranychus urticae
Description: as §1
A kidney bean leaf disc (20 mm in diameter) perforated with a cork borer was placed on water-impregnated absorbent cotton, and thereon 20 adults of two-spotted spider mite were set free, and the resulting set was allowed to stand around the clock. The same dilution of the emulsifiable concentrate of a test compound having a concentration of 200 ppm as used in Test 1 and Test 2, was applied by an applicator having a diameter of 20 cm and a height of 60 cm in an amount of 3 ml. 24 hours after, the number of killed adults was counted.

[3] = system: common cutworm (third-instar larvae); assay: Test 1 (Effect on Common Cutworm); assay type: in vivo; conditions: Spodoptera litura
Description: as §1
The emulsifiable concentrate of the test compound, prepared according to the method described in Formulation Example 1, was diluted with water to a specified concentration. Sweet potato leaves were sufficiently immersed in the dilution. The sweet potato leaves were dried and placed in a plastic cup having a diameter of 10 cm, and 10 third-instar larvae of common cutworm were set free in each cup. 48 hours after, the numbers of killed and living larvae were counted and the mortality was calculated.

yearling carps = assay: Test 5 (Fish Toxicity); assay type: in vivo, carp
Description: as §1
A water tank having a width of 60 cm, a length of 30 cm and a height of 40 cm was filled with water, and 10 yearling carps having a body length of about 5 cm were set free in the tank and adapted to the environment in the tank. An acetone solution of a test compound was applied into water so as to become a concentration of 1 or 0.1 ppm in water by adding said acetone solution at a rate of one part by volume per 100 parts by volume of water. 48 hours after, the number of killed and living carps was counted and the effect of a test compound on carps was examined.

[4] = system: German cockroach (female adults); assay: Test 3 (Effect on German Cockroach); assay type: in vivo, Blatella germanica (German cockroach); conditions: Blattella germanica
Description: as §1
One ml of an acetone solution of a test compound of a specified concentration was poured in a high Petri dish having a diameter of 9 cm and a height of 9 cm. The Petri dish was allowed to stand, and thereby the acetone was evaporated. The upper part of the inner wall of the Petri dish was treated with butter to prevent the adults of German cockroach from escaping from the Petri dish. 10 female adults of German cockroach were set free in each Petri dish. 48 hours after, the number of killed adults was counted.

[5] = 20 ppm, 48 hours, female adults, read-out: Mortality (%)
[6] = 100 ppm, 48 hours, female adults, read-out: Mortality (%)
[7] = 200 ppm, 24 hours, adults, read-out: Mortality (%)
[8] = 20 ppm, 48 hours, third-instar larvae, read-out: Mortality (%)
[9] = 100 ppm, 48 hours, third-instar larvae, read-out: Mortality (%)
[10] = 1 mg/m^2, 48 hours, female adults, read-out: Mortality (%)
[11] = 5 mg/m^2, 48 hours, female adults, read-out: Mortality (%)

CC(C)(CCCc1cccc(Oc2ccccn2)c1)c1ccc(Cl)cc1 [Compound 43]
mortality at 20 ppm [1, 5]: 75% | mortality at 100 ppm [1, 6]: 100% | mortality at 200 ppm [2, 7]: 60%

CC(C)(CCCc1cccc(Oc2ccccc2)c1)c1ccc(OCCF)cc1 [Compound 60]
mortality at 20 ppm [3, 8]: 90% | mortality at 100 ppm [3, 9]: 100% | mortality at 20 ppm [1, 5]: 100% | mortality at 100 ppm [1, 6]: 100% | mortality at 200 ppm [2, 7]: 90%

CCOc1ccc(C(C)(C)CCCc2cccc(Oc3ccccc3)c2)cc1 [Compound 24]
mortality at 20 ppm [3, 8]: 100% | mortality at 100 ppm [3, 9]: 100% | mortality at 20 ppm [1, 5]: 100% | mortality at 100 ppm [1, 6]: 100% | mortality at 200 ppm [2, 7]: 95% | Mortality(%) 48 Hours After (yearling carps; 0.1 ppm in water): 0% | Mortality(%) 48 Hours After (yearling carps; 1 ppm in water): 0% | mortality at 1 mg/m2 [4, 10]: 100% | mortality at 5 mg/m2 [4, 11]: 100%

CCOc1ccc(C(C)(C)CCCc2cccc(Oc3ccccc3)n2)cc1 [Compound 19]
mortality at 20 ppm [3, 8]: 70% | mortality at 100 ppm [3, 9]: 100% | mortality at 200 ppm [2, 7]: 43%

CCc1ccc(C(C)(C)CCCc2ccc(F)c(Oc3ccccc3)c2)cc1 [Compound 52]
mortality at 20 ppm [3, 8]: 100% | mortality at 100 ppm [3, 9]: 100% | mortality at 20 ppm [1, 5]: 100% | mortality at 100 ppm [1, 6]: 100% | mortality at 200 ppm [2, 7]: 100% | mortality at 1 mg/m2 [4, 10]: 70% | mortality at 5 mg/m2 [4, 11]: 100%

Cc1ccc(C(C)(C)CCCc2ccc(F)c(Oc3ccccc3)c2)cc1 [Compound 29]
mortality at 20 ppm [3, 8]: 100% | mortality at 100 ppm [3, 9]: 100% | mortality at 1 mg/m2 [4, 10]: 100% | mortality at 5 mg/m2 [4, 11]: 100%

CC(C)Oc1ccc(C(C)(C)CCCc2cccc(Oc3ccccc3)c2)cc1 [Compound 9, 1-(3-phenoxyphenyl)-4-(4-isopropoxyphenyl)-4-methylpentane]
mortality at 20 ppm [3, 8]: 100% | mortality at 100 ppm [3, 9]: 100% | mortality at 20 ppm [1, 5]: 100% | mortality at 100 ppm [1, 6]: 100% | mortality at 200 ppm [2, 7]: 100%

OC(c1ccc(Cl)cc1)(c1ccc(Cl)cc1)C(Cl)(Cl)Cl [(e), Kelthane, reference compound]
mortality at 200 ppm ([2]; 24 h): 100%

CC(C)(CCC(C#N)c1cccc(Oc2ccccc2)c1)c1ccc(Cl)cc1 (stereo not drawn) [Compound 54, 1-(3-Phenoxyphenyl)-1-cyano-4-(4-chlorophenyl)-4-methylpentane]
mortality at 20 ppm [3, 8]: 45% | mortality at 100 ppm [3, 9]: 90% | mortality at 20 ppm [1, 5]: 50% | mortality at 100 ppm [1, 6]: 90% | mortality at 200 ppm [2, 7]: 100%

COCc1ccc(C(C)(C)CCCc2cccc(Oc3ccccc3)c2)cc1 [Compound 61]
mortality at 20 ppm [1, 5]: 100% | mortality at 100 ppm [1, 6]: 100% | mortality at 200 ppm [2, 7]: 93%

CCOc1ccc(C(C)(C)CCCc2ccc(F)c(Oc3ccc(F)cc3)c2)cc1 [Compound 55]
mortality at 20 ppm [3, 8]: 100% | mortality at 100 ppm [3, 9]: 100% | mortality at 20 ppm [1, 5]: 100% | mortality at 100 ppm [1, 6]: 100% | Mortality(%) 48 Hours After (yearling carps; 0.1 ppm in water): 0% | Mortality(%) 48 Hours After (yearling carps; 1 ppm in water): 0% | mortality at 1 mg/m2 ([4]; 48 h): 100% | mortality at 5 mg/m2 ([4]; 48 h): 100%

CCOP(=S)(OCC)Oc1cc(C)nc(C(C)C)n1 [(c), Diazinon, reference compound]
mortality at 20 ppm ([1]; 48 h): 10% | mortality at 100 ppm ([1]; 48 h): 80% | mortality at 1 mg/m2 ([4]; 48 h): 0% | mortality at 5 mg/m2 ([4]; 48 h): 80%

CC(C)(CCCc1cccc(Oc2ccccc2)c1)c1ccc2c(c1)OCO2 [Compound 4, 1-(3-phenoxyphenyl)-4-(3,4-methylenedioxyphenyl)-4-methylpentane]
mortality at 20 ppm [3, 8]: 100% | mortality at 100 ppm [3, 9]: 100% | Mortality(%) 48 Hours After (yearling carps; 0.1 ppm in water): 0% | Mortality(%) 48 Hours After (yearling carps; 1 ppm in water): 0% | mortality at 1 mg/m2 [4, 10]: 40% | mortality at 5 mg/m2 [4, 11]: 100%

CC(C)c1ccc(C(C)(C)CCCc2ccc(F)c(Oc3ccccc3)c2)cc1 [Compound 56]
mortality at 20 ppm [1, 5]: 100% | mortality at 100 ppm [1, 6]: 100% | mortality at 200 ppm [2, 7]: 100% | mortality at 1 mg/m2 [4, 10]: 40% | mortality at 5 mg/m2 [4, 11]: 100%

COP(=O)(OC)OC=C(Cl)Cl [(a), 0,0-dimethyl-0-(2,2-dichlorovinyl)phosphate, reference compound]
mortality at 20 ppm ([3]; 48 h): 0% | mortality at 100 ppm ([3]; 48 h): 60% | mortality at 200 ppm ([2]; 24 h): 33%

CC(C)(CCCc1cccc(Oc2ccccc2)c1)c1ccc(OC(F)(F)C(F)F)cc1 [Compound 65]
mortality at 20 ppm [3, 8]: 100% | mortality at 100 ppm [3, 9]: 100% | mortality at 20 ppm [1, 5]: 100% | mortality at 100 ppm [1, 6]: 100% | mortality at 1 mg/m2 [4, 10]: 30% | mortality at 5 mg/m2 [4, 11]: 95%

CC(C)(CCCc1ccc(F)c(Oc2ccccc2)c1)c1ccc(OC(F)(F)C(F)F)cc1 [Compound 66]
mortality at 20 ppm [3, 8]: 100% | mortality at 100 ppm [3, 9]: 100% | mortality at 20 ppm [1, 5]: 100% | mortality at 100 ppm [1, 6]: 100% | mortality at 200 ppm [2, 7]: 100% | mortality at 1 mg/m2 [4, 10]: 65% | mortality at 5 mg/m2 [4, 11]: 100%

Cc1ccc(C(C)(C)CCCc2cccc(Oc3ccccc3)c2)cc1 [Compound 1, 1-(3-phenoxyphenyl)-4-(4-methylphenyl)-4-methylpentane]
mortality at 20 ppm [3, 8]: 100% | mortality at 100 ppm [3, 9]: 100% | Mortality(%) 48 Hours After (yearling carps; 0.1 ppm in water): 0% | Mortality(%) 48 Hours After (yearling carps; 1 ppm in water): 0% | mortality at 1 mg/m2 [4, 10]: 80% | mortality at 5 mg/m2 [4, 11]: 100%

CCOP(=S)(OCC)Oc1ccc(=O)n(-c2ccccc2)n1 [(b), 0,0-diethyl-0-(3-oxo-2-phenyl-2H-pyridazin-6-yl)-phosphorothioate, reference compound]
mortality at 20 ppm ([1]; 48 h): 90% | mortality at 100 ppm ([1]; 48 h): 100% | mortality at 1 mg/m2 [4, 10]: 0% | mortality at 5 mg/m2 [4, 11]: 10%

CCOc1ccc(C(C)(C)CCCc2cccc(Oc3ccc(F)cc3)n2)cc1 [Compound 40]
mortality at 20 ppm [1, 5]: 60% | mortality at 100 ppm [1, 6]: 100% | mortality at 200 ppm [2, 7]: 70%

CC(C)(CCCc1ccc(F)c(Oc2ccc(F)cc2)c1)c1ccc(Cl)cc1 [Compound 53]
mortality at 20 ppm [1, 5]: 100% | mortality at 100 ppm [1, 6]: 100% | mortality at 200 ppm [2, 7]: 100% | mortality at 1 mg/m2 [4, 10]: 80% | mortality at 5 mg/m2 [4, 11]: 100%

CC(C)(C)c1ccc(C(C)(C)CCCc2ccc(F)c(Oc3ccccc3)c2)cc1 [Compound 44]
mortality at 20 ppm [3, 8]: 40% | mortality at 100 ppm [3, 9]: 90% | mortality at 200 ppm [2, 7]: 85%

COc1ccc(C(C)(C)CCCc2ccc(F)c(Oc3ccccc3)c2)cc1 [Compound 6, 1-(3-phenoxy-4-fluorophenyl)-4-(4-methoxyphenyl)-4-methylpentane]
mortality at 20 ppm [3, 8]: 100% | mortality at 100 ppm [3, 9]: 100% | mortality at 20 ppm [1, 5]: 100% | mortality at 100 ppm [1, 6]: 100% | Mortality(%) 48 Hours After (yearling carps; 0.1 ppm in water): 0% | Mortality(%) 48 Hours After (yearling carps; 1 ppm in water): 0% | mortality at 1 mg/m2 [4, 10]: 100% | mortality at 5 mg/m2 [4, 11]: 100%

CCOc1ccc(C2(CCCc3cccc(Oc4ccccc4)c3)CCC2)cc1 [Compound 31, 1-(3-Phenoxyphenyl)-3-[1-(4-ethoxyphenyl)cyclobutyl]propane]
mortality at 20 ppm [1, 5]: 100% | mortality at 100 ppm [1, 6]: 100% | mortality at 1 mg/m2 [4, 10]: 100% | mortality at 5 mg/m2 [4, 11]: 100%

CC(C)(CCCc1cccc(Oc2ccccc2)c1)c1ccc(OC(F)(F)CCl)cc1 [Compound 35]
mortality at 20 ppm [3, 8]: 100% | mortality at 100 ppm [3, 9]: 100% | mortality at 200 ppm [2, 7]: 85% | Mortality(%) 48 Hours After (yearling carps; 0.1 ppm in water): 0% | Mortality(%) 48 Hours After (yearling carps; 1 ppm in water): 0% | mortality at 1 mg/m2 ([4]; 48 h): 70% | mortality at 5 mg/m2 ([4]; 48 h): 100%

CC(C)(CCCc1ccc(F)c(Oc2ccccc2)c1)c1ccc(OC(F)F)cc1 [Compound 10, 1-(3-phenoxy-4-fluorophenyl)-4-(4-difluoromethoxyphenyl)-4-methylpentane]
mortality at 20 ppm [3, 8]: 100% | mortality at 100 ppm [3, 9]: 100% | mortality at 20 ppm [1, 5]: 100% | mortality at 100 ppm [1, 6]: 100% | Mortality(%) 48 Hours After (yearling carps; 0.1 ppm in water): 5% | Mortality(%) 48 Hours After (yearling carps; 1 ppm in water): 30% | mortality at 1 mg/m2 [4, 10]: 100% | mortality at 5 mg/m2 [4, 11]: 100%

CCOC(=O)c1ccc(C(C)(C)CCCc2cccc(Oc3ccccc3)c2)cc1 [Compound 64]
mortality at 20 ppm [3, 8]: 40% | mortality at 100 ppm [3, 9]: 90% | mortality at 200 ppm [2, 7]: 70%

CC(C)(CCCc1ccc(F)c(Oc2ccccc2)c1)c1ccccc1 [Compound 27]
mortality at 20 ppm [3, 8]: 100% | mortality at 100 ppm [3, 9]: 100% | mortality at 20 ppm [1, 5]: 100% | mortality at 100 ppm [1, 6]: 100% | mortality at 1 mg/m2 ([4]; 48 h): 100% | mortality at 5 mg/m2 ([4]; 48 h): 100%
